Assays:
NZBWF1/J mice = assay: Murine NZB/W F1 lupus model; assay type: in vivo, mouse; conditions: vs vehicle; for Glomerulonephritis score reduction: kidney histopathology; for Plasma anti-dsDNA IgG levels: days 49, 98, 140 (age 30, 37, 43 wk)
From the text: Female NZBWF1/J mice (n=60) that were 8 weeks old on arrival and weighed approximately 35-51 grams (mean 42 g) at enrollment (mouse age approx. 23 weeks) were obtained from The Jackson Laboratory, Bar Harbor, Me. (stock number 100008). Animals were identified by a distinct number of ink marks at the base of the tail delineating animal number. After enrollment, all cages were labeled with protocol number, group number, and animal numbers.
Mice were terminated at age 43 weeks (day 140).
All dose solutions were prepared to deliver in 10 ml/kg (0.3 ml/30 g mouse).
Body weights were measured and recorded prior to study initiation for randomization, on the first day of dosing prior to dosing, and weekly throughout the study. Body weights were also recorded at scheduled termination points and as needed if test subjects appeared to decrease in weight by visual inspection. The animals were observed daily for significant clinical signs, morbidity and mortality.
Urine from each animal was tested weekly (beginning at mouse age 23 weeks) for proteinuria using Clinitech Multistick test strips (Bayer).
At necropsy, animals were anesthetized with isoflorane and bled via cardiac puncture for serum (for clinical chemistry analysis) and plasma (for Anti-dsDNA ELISA and PK). Terminal urine was collected and assessed. Spleens and kidneys (paired) were collected, weighed, and placed in 10% NBF. Serum obtained at necropsy was sent to Antech Diagnostics for analysis. Terminal plasma samples were split with half being used for Anti-dsDNA ELISA and the other half being shipped to the sponsor.
Anti-dsDNA IgG analysis was performed on days 0, 49, 98, and 140 (mouse age 23, 30, 37, and 43 weeks). Anti-dsDNA IgG levels were determined using an Anti-dsDNA IgG ELISA Kit (Alpha Diagnostic, kit #5120, lot #90903K4) following manufacturer's instructions.
Blood samples for clinical chemistry evaluation were collected at termination via cardiac puncture from Isoflurane anesthetized animals into serum separator microtainer tubes. Serum was sent to Antech Diagnostics for analysis.
The following parameters were measured: Albumin (ALB), Albumin: Globulin ratio (A/G), Alkaline phosphatase (ALK), Alanine aminotransferase (ALT), Aspartate aminotransferase (AST), Calcium (CA), Magnesium (Mg), Phosphorous (P), Globulin (GLOB), Electrolytes (Sodium (Na), Potassium (K), Chloride (Cl)), Gamma glutamyltransferase (GGT), Total bilirubin (TBILI), Amylase (AMY), Lipase (LIP), Osmolality, Triglycerides (TRIG), Total cholesterol (CHOL), Urea nitrogen (BUN), Creatinine (CREAT), Glucose (GLU), Total protein (TP), and Creatinine kinase (CPK).
Histopathologic evaluation was performed on kidneys. Kidneys from all surviving animals were examined microscopically by a board certified veterinary pathologist and observations were entered into a computer-assisted data retrieval system. Kidney sections were stained with Masson's Trichrome, or Hematoxylin and Eosin. To maintain blinding of the analysis, slides were labeled with the animal number with no reference to treatment group.
Kidneys were scored according to the following system (developed by Chan O, Madaio M P, Shlomchik M J. The roles of B cells in MRL/lpr murine lupus. Annals New York Academy of Sciences, 1997; 815:75-82), modified to suit the lesion severity.
• 0=Normal. • 1=Focal or multifocal, minimal to mild, early proliferative. • 2=Multifocal mild to moderate or mild diffuse proliferative. • 3=Diffuse moderate proliferative with or without multifocal severe areas. • 4=Marked diffuse proliferative, with crescents/sclerosis, multifocal protein casts present. • 5=Severe diffuse proliferative, with crescents/sclerosis, diffuse protein casts present. […]

[1] = tested on: Human B-cell proliferation; assay: Human B-cell proliferation; assay type: cell-based
[2] = tested on: TL2/TLR6 (PAM2CSK4 induced cytokines); assay: PAM2CSK4 induced cytokine production in PBMCs; assay type: cell-based, human
Description: These experiments were conducted using PBMCs.

[3] = serum at termination, Compound 292 (1, 5, 10 mg/kg), Dex 2 mg/kg

With C[C@H](Nc1ncnc2[nH]cnc12)c1cc2cccc(Cl)c2c(=O)n1-c1ccccc1 [Compound 292] the Glomerulonephritis score reduction (NZBWF1/J mice; 1 mg/kg PO QD) was 68%, the Urine protein levels (NZBWF1/J mice; 1 mg/kg PO QD, p<0.05 at mouse age 43 wk) was “significantly reduced” and the “Perivascular inflammation score reduction” value (NZBWF1/J mice; 1 mg/kg PO QD) was 79%. The “Protein cast severity reduction” value (NZBWF1/J mice; 1 mg/kg PO QD) was 100%, the Spleen weight reduction (NZBWF1/J mice; 1 mg/kg PO QD) was 39% and the “Summed histopathology scores reduction” value (NZBWF1/J mice; 1 mg/kg PO QD) was 67%. For the same compound, the “Plasma anti-dsDNA IgG levels” value (NZBWF1/J mice; 5 mg/kg PO QD) was “significantly reduced”, the Glomerulonephritis score reduction (NZBWF1/J mice; 5 mg/kg PO QD) was 89% and the Urine protein levels (NZBWF1/J mice; 5 mg/kg PO QD, p<0.05 at mouse age 43 wk) was “significantly reduced”. The “Interstitial nephritis score reduction” value (NZBWF1/J mice; 5 mg/kg PO QD) was 54%, the “Perivascular inflammation score reduction” value (NZBWF1/J mice; 5 mg/kg PO QD) was 90% and the “Protein cast severity reduction” value (NZBWF1/J mice; 5 mg/kg PO QD) was 100%. For the same compound, the Spleen weight reduction (NZBWF1/J mice; 5 mg/kg PO QD) was 54%, the “Summed histopathology scores reduction” value (NZBWF1/J mice; 5 mg/kg PO QD) was 81% and the “Plasma anti-dsDNA IgG levels” value (NZBWF1/J mice; 10 mg/kg PO QD) was “significantly reduced”. For the same compound, the Glomerulonephritis score reduction (NZBWF1/J mice; 10 mg/kg PO QD) was 100%, the Urine protein levels (NZBWF1/J mice; 10 mg/kg PO QD, p<0.05 at mouse age 42-43 wk) was “significantly reduced” and the “Interstitial nephritis score reduction” value (NZBWF1/J mice; 10 mg/kg PO QD) was 67%. For the same compound, the “Perivascular inflammation score reduction” value (NZBWF1/J mice; 10 mg/kg PO QD) was 100%, the “Protein cast severity reduction” value (NZBWF1/J mice; 10 mg/kg PO QD) was 100% and the Spleen weight reduction (NZBWF1/J mice; 10 mg/kg PO QD) was 55%. The “Summed histopathology scores reduction” value (NZBWF1/J mice; 10 mg/kg PO QD) was 91%, the “Body weight loss (percent change from baseline)” value (NZBWF1/J mice; 1, 5 or 10 mg/kg PO QD 20 wk, over time) was “did not differ significantly” and the Kidney weight (NZBWF1/J mice; 1, 5 or 10 mg/kg PO QD) was “did not differ significantly”. The “% of animals with proteinuria (urine protein levels >300 mg/dl)” value (NZBWF1/J mice; all doses (1, 5, or 10 mg/kg), animal age 43 weeks) was “significantly reduced”, the “Sodium (Na)” value (NZBWF1/J mice; serum at termination, Compound 292 1 mg/kg) was “significantly increased” and the “Amylase (AMY)” value (NZBWF1/J mice; serum at termination, Compound 292 5 mg/kg, Dex 2 mg/kg) was “significantly reduced”. For the same compound, the “Magnesium (Mg)” value (NZBWF1/J mice; serum at termination, Compound 292 10 mg/kg, Dex 2 mg/kg) was “significantly increased”, the “Aspartate aminotransferase (AST)” value (NZBWF1/J mice; serum at termination, Compound 292 (1, 5, 10 mg/kg)) was “significantly reduced” and the “Albumin (ALB)” value (NZBWF1/J mice; [3]) was “significantly increased”. For the same compound, the “Blood urea nitrogen (BUN)” value (NZBWF1/J mice; [3]) was “significantly reduced”, the “Calcium (CA)” value (NZBWF1/J mice; [3]) was “significantly increased” and the “Creatine kinase (CPK)” value (NZBWF1/J mice; [3]) was “significantly reduced”. For the same compound, the “Globulin (GLOB)” value (NZBWF1/J mice; [3]) was “significantly reduced”, the “Triglycerides (TRIG)” value (NZBWF1/J mice; [3]) was “significantly reduced” and the EC50 [1] was 0.5 nM. For the same compound, the “PAM2CSK4 induced IL-1 production” value [2] was “Inhibited”, the “PAM2CSK4 induced IL-6 production” value [2] was “Inhibited” and the “PAM2CSK4 induced IL-8 production” value [2] was “Inhibited”. For the same compound, the “PAM2CSK4 induced TNF-α production” value [2] was “Inhibited”.
